Data set [1] has as its system MDA-MB-231/breast cancer cells. Put plainly: MTT-cell proliferation assay. The data set is classed as cell-based, human. The conditions noted are these: 48 h drug exposure, mean of three experiments ± SEM. From the text: (§1) The potential anti-cancer activity of all fourteen final synthesized compounds was investigated through MTT cytotoxic assay against two different human solid cancerous cell lines; A549/lung and MDA-MB-231/breast adenocarcinoma. The adopted cell-proliferation assay assessed % cell viability in relation to the reducing activity of cellular NADPH-dependent cellular oxidoreductases on tetrazolium dye, MTT [2,5-diphenyl-3-(4,5-dimethylthiazol-2-yl)tetrazolium bromide salt], for furnishing an easily quantified insoluble chromogenic formazan. For each drug concentration, 0.1, 1, 10, and 100 μM, the % cell-viability was estimated relative to negative control following a complete 48 h of drug treatment. Both 5-fluorouracil (5-FU) and doxorubicin (DOX) were set as positive index comparators. Moreover, the safety profile of the synthesized compounds was further investigated by examining their in-vitro cytotoxicity on non-cancerous cell line; MDCK/kidney cells.
(§2) Evaluating the cytotoxicity of tested compounds on two cancer cell lines (A549/lung and MDA-MB-231/breast adenocarcinoma) and non-cancerous (MDCK/kidney cells) was performed while adopting the formerly described method with small alterations. Cancer cell lines were propagated within Dulbecco’s Modified Eagle Medium-High Glucose (Cat.#: P0103; DMEM_High Glucose with Na.Pyruvate and stable Glutamine, Biowest^TM, Nuaillé, France), while MDA-MB-231 cells were propagated within RPMI-1640 L-Glutamine medium (Cat.#:12-604F; Lonza-Verviers SPRL^TM, Verviers, Belgium). The culturing media were supplemented via 1% antibiotic-antimycotic 100X (Cat.#: L0010; Biowest^TM, Nuaillé, France) and 10% fetal bovine serum (FBS) (Cat.#: EU-000-H; Seralab^TM, West Sussex, UK). Cells were seeded as triplicates within 96-well plate, at 1 × 10^4 cells per well density, after being counted and viability checked using the trypan blue staining solution (Cat.# ab233465; Abcam^TM, Cambridge, MA, USA). Seeded cells were permitted to adhere for 24 h under 5% CO2 and at 37 °C incubating conditions. The assigned compounds were dissolved in 500 µL DMSO affording the stock solution (100 mM) being ready for more diluting within the whole medium to obtain the compound’s final concentrations; 0.1, 1, 10, 100 µM for cell treatments. […] Following 24 h compound-cell treatment, the medium was substituted by fresh one and cells were permitted to develop for 48 h. At four hours prior the end of incubation, 10 μL MTT Sigma-Aldrich^TM (5 mg/mL in PBS 1X without magnesium and calcium; Cat.# 17-516F, Lonza-Verviers^TM, Basel, Switzerland) were added to all wells. Following the complete 48 h incubation, 100 μL DMSO was all added to all wells where they were subsequently centrifuged at 4000 rpm for 5 min allowing the formazan crystals of formazan to precipitate. Color was established and intensities were recorded at 490 nm using Synergy-Neo2® Hybrid MultiMode Plate Reader (BioTek^TM, Winooski, VT, USA), while subtracting the multi-well plates background absorbance at 690 nm. Percentage cell viability was estimated using the subsequent formula: % cell-viability = (average absorbance of treated wells/average absorbance of controls) × 100.

Data set [2] concerns A549/lung adenocarcinoma cells. The data set can be described thus: MTT-cell proliferation assay. The data set is classed as cell-based, human. The conditions noted are these: Homo sapiens, A549, 48 h drug exposure, mean of three experiments ± SEM.
Text: as §1, §2
On the technique in general: Formazan colour is commonly taken as a measure of viable cells.

In data set [3] the test system is Caspase-9 gene. Put plainly: RT-PCR apoptotic gene expression. The conditions noted are these: 13 μM, 48 h, MDA-MB-231, vs negative control. The data set is classed as cell-based, human. The method, then:
(§3) Dissection of the compound’s proapoptotic activity was proceeded through gene expression analysis for key genes, controlling apoptosis pathway, as well as protein level determination. Following 8b treatment for 48 h, alterations within MDA-MB-231/breast cancer cell expression of Bcl-2, Bax, caspase-3, -8, and -9 genes, as well as cytochrome c and class-III β-tubulin proteins levels were determined using real-time polymerase chain reaction (RT-PCR) or ELISA technique, respectively. Typically, Bcl-2, Bax, caspases, and cytochrome c proteins contributes within the regulation of apoptotic signaling. Acting as apoptotic activator (Bax) or inhibitor (Bcl-2), the Bcl-2 family proteins play their significant role in apoptosis. The caspases family are cysteine proteases being classified as either executioners; caspase-3, -6, or -7 or initiators; caspase-8 and -9 [36]. Regrading caspase-8, its activation is proceeded through extrinsic death-receptor dependent apoptotic pathway, while, caspase-9 activation is within the event of intrinsic mitochondrial cytochrome c leakage. Additionally, participation of activated caspase-3 is to be essential for […] activation. Class-III β-tubulin are pure prognostic biomarker within cancer patients being associated with aggressive phenotypic/drug-resistant cancers and part of complicated pro-survival molecular pathway, being triggered via poor nutrient supply and hypoxia.
(§4) Quantitative Real-time PCR was operated on Rotor-Gene Q® PCR system as a reader (Cat.#: 204774; Qiagen^TM, Milan, Italy) via GenElute® RNA extraction/SIGMA PCR kit (Cat.#: REI10; Qiagen^TM, Milan, Italy)^86. Cells were treated with IC50 of 8b for 48 h and total RNA was extracted from the non-treated and treated cells. RNA purity was assessed via Nanodrop® 2000/2000c UV-Vis spectrophotometer (Thermo-Scientific^TM, Bilbao, Spain). Synthesis of cDNA was proceeded using QuantiNova® Reverse Transcription Kit (Cat.#: RTN30; Qiagen^TM, Milan, Italy) and the subsequent PCR tests were conducted via single tubes. Specific forward/reverse primer pairs were selected for investigated (Casp-3, -8, -9, BAX, and Bcl2). Obtained results were expressed within Cycle threshold (Ct) values, while relative quantitation of each measured gene was assessed based on ΔΔCt calculations as represented in Table 5 [79].

In data set [4] the test system is Caspase-8 gene. The data set can be described thus: RT-PCR apoptotic gene expression. The data set is classed as cell-based, human. Conditions: 13 μM, 48 h, MDA-MB-231, vs negative control. How it is done:
as §3, §4

The subject of data set [5] is Bcl-2 gene. The data set can be described thus: RT-PCR apoptotic gene expression. The data set is classed as cell-based, human. The conditions noted are these: 13 μM, 48 h, MDA-MB-231, vs negative control. The method, then:
as §3, §4

For data set [6], the system named is Caspase-3 gene. The data set can be described thus: RT-PCR apoptotic gene expression. Conditions: 13 μM, 48 h, MDA-MB-231, vs negative control. The data set is classed as cell-based, human. The method, then: as §3, §4
Data set [7] deals with BAX gene. The data set can be described thus: RT-PCR apoptotic gene expression. The conditions noted are these: 13 μM, 48 h, MDA-MB-231, vs negative control. The data set is classed as cell-based, human. How it is done:
as §3, §4

Data set [8] is described as follows: In-vitro drug release, dialysis method. The data set is classed as physicochemical. Conditions: over 48 h, PBS pH 7.4, 37 °C, dialysis bag. How it is done:
The in-vitro drug-release behavior of SLNs was determined through the dialysis method. The release of drug from SLNs was done using phosphate buffer saline (pH 7.4) as dissolution medium. An accurate amount of SLNs (equivalent to 5 mg drug) was taken and placed within the dialysis bag (MWCO: 12 kDa). The dialysis bag was closed from both ends and placed within 75 mL Phosphate Buffer Saline (pH 7.4) as dissolution medium. The analysis was conducted while maintaining the dissolution medium at 37 ± 1 °C and being stirred via magnetic stirrer at 100 rpm. Dissolution medium samples (2 mL) were withdrawn at pre-determined time intervals (0.5, 1, 2, 4, 8, 12, 24 and 48 h). Equal volumes of fresh dissolution medium were added to replace the withdrawn volumes for keeping sink condition. The experiment was done in triplicate and the amount of drug release was measured following the same procedure as in the entrapment efficiency section.

Broadly, the IC50 is the concentration at which inhibition is half-maximal. As to `CCCc1ccc(-c2nn(-c3ccccc3)cc2C=NNC(=O)c2cc3ccccc3[nH]2)cc1` [Compound 8b, N′-((1-phenyl-3-(4-propylphenyl)-1H-pyrazol-4-yl)methylene)-1H-indole-2-carbohydrazide], the 50% inhibitory concentration (IC50) in data set [1] is 12.7 ± 2.48 µM; in data set [1] (Homo sapiens, MDA-MB-231, 48 h), around 13 µM; in data set [2] it was 23.1 ± 1.45 µM. Besides, the Caspase-9 gene expression in data set [3] is reported as 7.65 folds. In data set [4], this compound came in with a Caspase-8 gene expression of 1.53 folds. In addition, in data set [5], the Bcl-2 gene expression is reported as 0.165 folds. In data set [6], this compound gave a Caspase-3 gene expression of 4.28 folds. In addition, in data set [7], the BAX gene expression is on record as 3.61 folds. Moreover, the “total released amount of drug” value in data set [8] is on record as 21.48 ± 1.17%.

(Values after paper PMC7912796, “Design, Synthesis, Anticancer Activity, and Solid Lipid Nanoparticle Formulation of Indole- and Benzimidazole-Based Compounds as Pro-Apoptotic Agents Targeting Bcl-2 Protein” (Pharmaceuticals, 2021).)
